{"source": "patent US9157087B2", "about": "“Inducible plant promoters and the use thereof” (University of Tennessee Research Foundation, priority 2012, dated 2015)", "test_system": "transgenic soybean hairy roots", "experiment": "Inducibility of ppor RFP reporter by chemical treatments (SA, ethephon, MeJA) in transgenic soybean hairy roots", "assay_type": "cell-based, soybean line TN02-275", "settings": "4 mg/ml ethephon (ethylene releasing chemical), 3 days; listed as Promoter 2.3"}
{"sequence": "ATATAATTAAGT (listed as DNA, chemistry not fully specified) [Motif 2.3, 12 bp SCN-inducible promoter motif, tested as tetramerized repeat 5′ of a minimal CaMV 35S promoter]", "values": [{"measurement": "Inducibility by Effectors ERE", "result": "induced to a much lower degree"}]}
